In patent US5830881A, “L-2'3',dideoxy nucleoside analogs as anti-hepatitus B (HBV) agents” (priority 1996, dated 1998):
Where two headings read alike, the source gives them in different places.

How the values were obtained:
[1] = tested on: human immunodeficiency virus (HIV); conditions: in words, literature, cited from earlier work
Hepatitis B virus = conditions: in words; literature; cited from earlier work
mitochondrial DNA = conditions: cited from earlier work; for IC50: data from published literature, read-out: Anti-mitochondrial DNA ID50
HIV-1 [2] = conditions: data from published literature; read-out: Anti-HIV ID50; cited from earlier work
HBV [3] = conditions: data from published literature; read-out: Anti-HBV ID50; cited from earlier work
CEM cells [4] = conditions: cited from earlier work; for CC50: data from published literature, 4320 min, read-out: Cytotoxicity ID50
[5] = tested on: Hepatitis B viral infections; conditions: in words; prior therapy; cited from earlier work
HIV-1 [6] = experiment: Anti-HIV effects in T-lymphoblastoid cell line MT-2 infected with HIV-1; type: cell-based; conditions: Human immunodeficiency virus 1, MT2, MT-2 cells, read-out: Anti-HIV ID50
Experimental: Anti-HIV effects were determined using the T-lymphoblastoid cell line, MT-2 infected with the HIV-1 virus. The inhibition was determined by the method of Larder, B. A., et al., Antimicrob. Agents Chemother., 34, 436 (1990).

in vitro = conditions: human, cem cells
CEM cells [7] = experiment: Cellular toxicity in T-lymphoblastoic cell line (CEM), cell number 3 days post treatment; type: cell-based; conditions: in words
Experimental: (§1) To determine the cellular toxicity of the present compounds, the T-lymphoblastoic cell line (CEM) was used. Cells were subjected to varying concentrations of the drug(s) and cell numbers were determined 3 days post treatment by the method described by Chen, C-H and Cheng, Y-C J. Biol. Chem., 264, 11934 (1989).

[8] = as above; type: cell-based; conditions: human; CEM cells, 3 days; read-out: Cytotoxicity ID50
Experimental: as §1

HBV [9] = experiment: Anti-HBV effects: viral DNA from secreted particles of the 2.2.15 human hepatoma cell line carrying HBV (Southern analysis); type: cell-based, Hepatitis B virus
Experimental: The biological activity of the present compounds was assessed as described by Doong, S-L, et al., Proc. Natl. Acad. Sci. U.S.A 88, 8495-8499 (1991). The human hepatoma cell line carrying the HBV (designated 2.2.15) kindly provided by Dr. G. Acs was used in the study. Price, et al., Proc. Natl. Acad. Sci. U.S.A. 86, 8541 (1989). Briefly, Six day-old cultures were treating with varying concentrations of the drug in the culture medium (Minimum essential medium with Earl's salts and 10% fetal bovine serum). The drug was left in the culture medium for a period of 3 days after which period the medium was aspirated and fresh medium containing the same concentration(s) of the dry was added. At the end of the subsequent 3 day period the culture medium was harvested. The culture medium was processed for obtaining the virions by the polyethylene glycol precipitation method (Doong, et al., supra). Viral DNA thus recovered from the secreted particles was subjected to Southern analysis. Inhibition of the viral replication was determined by the comparison of the viral DNA from drug-treated versus control cultures not treated with the drug.

2',3'-dideoxy-2',3'-didehydroguanosine [Carbovir]
activity against HIV [1]: significant activity

Nc1nc(=O)n([C@@H]2CS[C@H](CO)O2)cc1F (relative stereo) [(±)5-FSddC]
activity against Hepatitis B virus in culture (Hepatitis B virus): potent activity

Nc1ccn([C@@H]2CS[C@H](CO)O2)c(=O)n1 (relative stereo) [(±) SddC, (+) and (-)-2',3'-Dideoxy-3'-thiacytidine]
activity against Hepatitis B virus in culture (Hepatitis B virus): potent inhibitors of Hepatitis B virus

Nc1ccn([C@H]2CS[C@@H](CO)O2)c(=O)n1 (stereo in doubt) [(-)S-ddC, (-)-2',3'-Dideoxy-3'-thiacytidine]
IC50 (mitochondrial DNA): > 50000 nM
activity against Hepatitis B virus in culture (Hepatitis B virus): potent activity
IC50 (HIV-1 [2]): 2000 nM
IC50 (HBV [3]): 10 nM
CC50 (CEM cells [4]): 50000 nM

Nc1ccn([C@H]2C=C[C@@H](CO)O2)c(=O)n1 [2',3'-dideoxy-2',3'-didehydrocytidine]
activity against HIV [1]: significant activity

[N-]=[N+]=N[C@H]1C[C@H](n2ccc(=O)[nH]c2=O)O[C@@H]1CO [3'-azido-2',3'-dideoxyuridine]
activity against HIV [1]: significant activity

Nc1ncnc2c1ncn2[C@H]1C[C@H](F)[C@@H](CO)O1 [3'-fluoro-2',3'-dideoxyadenosine]
activity against HIV [1]: significant activity

Cc1cn([C@H]2C[C@H](F)[C@@H](CO)O2)c(=O)[nH]c1=O [3'-fluoro-3'-deoxythymidine]
activity against HIV [1]: significant activity

Cc1cn([C@H]2C[C@H](N=[N+]=[N-])[C@@H](CO)O2)c(=O)[nH]c1=O [AZT]
success in treatment of hepatitis [5]: little, if any, success

Cc1cn([C@H]2C=C[C@@H](CO)O2)c(=O)[nH]c1=O [Compound D4T, 3'-deoxy-2',3'-didehydrothymidine]
activity against HIV [1]: significant activity

OC[C@@H]1CC[C@H](n2cnc3c(O)ncnc32)O1 [DDI, 2',3'-dideoxyinosine]
activity against HIV [1]: significant activity

Nc1ccn([C@@H]2CC[C@H](CO)O2)c(=O)n1 [L-ddC, 1-(2,3-dideoxy-beta-L-ribofuranosyl)cytosine]
IC50 (HIV-1 [6]): 8000 nM
IC50 (in vitro): > 100000 nM
cellular effects (CEM cells [7]): minimal cellular effects
cellular cytotoxicity as compared to ddC (CEM cells [7]; compared with ddC): considerably less
CC50 at 72 h [8]: 54000 ± 20000 nM
IC50 (HBV [9]; Hepatitis B virus, 2.2.15 cells, read-out: Anti-HBV ID50): 10 nM
inhibition of HBV DNA replication (HBV [9]; in words): efficiently inhibited
activity against HBV (HBV [9]; in words, relative activity): several fold higher activity against HBV

Nc1nc2c(ncn2COCCO)c(=O)[nH]1 [acyclovir]
success in treatment of hepatitis [5]: little, if any, success

Nc1ncnc2c1ncn2[C@@H]1O[C@H](CO)[C@@H](O)[C@@H]1O [adenine arabinoside]
success in treatment of hepatitis [5]: limited success

Nc1ncnc2c1ncn2[C@@H]1O[C@H](COP(=O)(O)O)[C@@H](O)[C@@H]1O [ara-AMP]
success in treatment of hepatitis [5]: limited success

Nc1ccn([C@H]2CC[C@@H](CO)O2)c(=O)n1 [ddC, 2',3'-dideoxycytidine]
IC50 (mitochondrial DNA): 22 nM
effects on host mitochondrial DNA (mitochondrial DNA; in words): significant effects on host mitochonrial DNA
IC50 (HIV-1 [2]): 1000 nM
activity against HIV [1]: among the most potent inhibitors of HIV
activity against HIV ([1]; listed as DDC): significant activity
IC50 (HBV [3]): 2800 nM
CC50 (CEM cells [4]): 10000 nM
cytotoxicity compared with L-ddC (CEM cells [4]; in words, compared with L-ddC): much more cytotoxic than L-ddC

O=C(O)P(=O)(O)O [foscarnet]
success in treatment of hepatitis [5]: little, if any, success

interferon alpha
success in treatment of hepatitis [5]: limited success
